Patent US8999243B2, “Blood coagulation system analyzing method and blood coagulation system analyzing device” (Sony Corporation, priority 2011, dated 2015)

What was measured:
[1] = system: platelets in sample blood / platelet poor blood; assay: Rheometer (free damped oscillation type) measurement of viscoelasticity change / coagulation time; format: cell-based, human
Description: By using an evacuated blood collection tube treated with use of sodium citrate as an anticoagulant, blood was collected from the healthy person and the patient with thrombocytopenia (the number of platelets in 1 μL of blood was 1.2×10^4) as a whole blood sample. Furthermore, blood cells and platelets were separated from the whole blood sample to prepare platelet poor plasma. The sample blood was centrifuged under a condition of 500 G and five minutes to be separated into blood cells and platelet rich plasma (PRP). The plasma was centrifuged under a condition of 2000 G and 30 minutes and sedimentation of the platelets was caused to obtain the platelet poor plasma (PPP). Measurement was performed by using a rheometer of the free damped oscillation type. The coagulation time was obtained by observing a change in the viscoelasticity and compared with the result by the dielectric measurement.

[2] = system: platelets in sample blood (whole blood); assay: Dielectric measurement (complex permittivity) of blood coagulation with platelet activating agent; format: cell-based, human; details: frequency 10.7 MHz
Description: By using an evacuated blood collection tube treated with use of sodium citrate as an anticoagulant, blood was collected from the healthy person and the patient with thrombocytopenia (the number of platelets in 1 μL of blood was 1.2×10^4) as a whole blood sample. Next, 0.25 M of a calcium chloride aqueous solution was added (85 μL per 1 mL of blood) to the sample blood whose temperature was kept at 37° C. and a blood coagulation reaction was started. The platelet activating agent (ADP) was so added as to be mixed in the calcium chloride aqueous solution (10 μM per 1 mL of blood). Immediately after the start of the blood coagulation reaction, measurement was performed for 60 minutes by using an impedance analyzer (Agilent Corporation, 4294A) under the following condition: temperature was 37° C.; frequency range was 40 Hz to 110 MHz; and measurement time interval was one minute.

Nc1ncnc2c1ncn2[C@@H]1O[C@H](COP(=O)(O)OP(=O)(O)O)[C@@H](O)[C@H]1O [ADP, adenosine diphosphate]
change of coagulation time due to ADP addition (rheometer) ([1]; platelet poor blood (cleaned red blood cells added to platelet poor plasma)): not observed | change of coagulation time due to ADP addition (rheometer) ([1]; sample blood of the healthy person): shortening of the coagulation time | coagulation time with ADP addition ([2]; sample blood of patient with thrombocytopenia (1.2×10^4 platelets in 1 μL), ADP added): 38 min | change of coagulation time due to ADP addition (dielectric measurement) ([2]; sample blood of patient with thrombocytopenia): shortening of the coagulation time was found | average of the coagulation time when the ADP was added ([2]; sample blood of plural healthy persons, ADP 10 μM per 1 mL of blood in calcium chloride solution, 37° C., without ADP 31 minutes): 17 min | change of coagulation time due to ADP addition (dielectric measurement) ([2]; sample blood of plural healthy persons): shortening of the coagulation time
